Values after ≈ are worked out from the molar mass of the structure shown.
Assays:
[1] = Aqueous solubility of compound in pH 7.4 PBS buffer measured after 24 hrs by LC-MS/MS analysis; format: physicochemical
[2] = Lipophilicity, logD of the compound in octanol and phosphate buffer at pH 7.4 incubated for 2 hrs under shaking condition by LC-MS/MS analysis; format: physicochemical
[3] = Metabolic stability in human liver microsomes assessed as half life at 1 uM measured up to 60 mins in presence of NADPH by LC-MS/MS analysis; format: ADME, Microsome; details: for half-life at 1 µM: liver microsomes
[4] = Metabolic stability in human liver S9 fraction assessed as half life at 1 uM measured after 2 hrs in presence of NADPH by LC-MS/MS analysis; format: ADME, subcellular

solubility at 24 h [1] [µM] | logD at 2 h [2] | half-life at 1 µM [3] [min] | half-life at 1 µM [4] [min] | t1/2 ([3]; microsomes, 1 h, 1 µM) [h] | Compound
> 200 | 0.12 | – | – | – | O=C(O)c1cccc(OCc2ccc3ccccc3n2)c1
3.5 (≈ 1.12 µg/mL) | 1.01 | 22.3 | – | – | CCC(C)COc1cccc(OCc2ccc3ccccc3n2)c1 (stereo not drawn)
141 (≈ 37.4 µg/mL) | 2.8 | 48 | 119 | – | OCc1cccc(OCc2ccc3ccccc3n2)c1
39.3 (≈ 13.2 µg/mL) | 3.1 | – | 57 | 37 | CCCCCC(O)c1cccc(OCc2ccc3ccccc3n2)c1 (stereo not drawn) [REV-5901]

From ChEMBL document CHEMBL5131401, “Structural Basis for Developing Multitarget Compounds Acting on Cysteinyl Leukotriene Receptor 1 and G-Protein-Coupled Bile Acid Receptor 1” (J Med Chem, 2021)
